Experimental data reported in ChEMBL document CHEMBL3734705, “Synthesis and in vitro cytotoxicity of novel C-12 substituted-14-deoxy-andrographolide derivatives as potent anti-cancer agents” (2015).

Experiments:
Format in all cases: functional
[1] = Cytotoxicity against human OVCAR5 cells assessed as growth inhibition at 10 uM after 48 hrs by SRB assay; conditions: OVCAR-5, 48 h, read-out: GI
M14 = assay: Cytotoxicity against human M14 cells after 48 hrs by SRB assay; conditions: M14, 48 h
[2] = Cytotoxicity against human OVCAR3 cells after 48 hrs by SRB assay; conditions: OVCAR-3, 48 h
[3] = Cytotoxicity against human HOP92 cells after 48 hrs by SRB assay; conditions: HOP-92, 48 h
A498 = assay: Cytotoxicity against human A498 cells after 48 hrs by SRB assay; conditions: A498, 48 h
[4] = Cytotoxicity against human DU145 cells after 48 hrs by SRB assay; conditions: DU-145, 48 h
[5] = Cytotoxicity against human OVCAR5 cells after 48 hrs by SRB assay; conditions: OVCAR-5, 48 h
[6] = Cytotoxicity against human UACC62 cells after 48 hrs by SRB assay; conditions: UACC-62, 48 h
[7] = Cytotoxicity against human Hs578T cells after 48 hrs by SRB assay; conditions: Hs-578T
[8] = Cytotoxicity against human MOLT4 cells after 48 hrs by SRB assay; conditions: MOLT-4, 48 h
[9] = Cytotoxicity against human UACC257 cells after 48 hrs by SRB assay; conditions: UACC-257, 48 h
MDA-MB-468 = assay: Cytotoxicity against human MDA-MB-468 cells after 48 hrs by SRB assay; conditions: MDA-MB-468, 48 h
[10] = Cytotoxicity against human NCI-ADR-RES cells after 48 hrs by SRB assay
MCF7 = assay: Cytotoxicity against human MCF7 cells after 48 hrs by SRB assay; conditions: MCF7, 48 h
786-0 = assay: Cytotoxicity against human 786-0 cells after 48 hrs by SRB assay; conditions: 786-0, 48 h
A549 = assay: Cytotoxicity against human A549 cells after 48 hrs by SRB assay; conditions: A549, 48 h
[11] = Cytotoxicity against human IGROV1 cells after 48 hrs by SRB assay; conditions: IGROV-1, 48 h
NCI-H460 = assay: Cytotoxicity against human NCI-H460 cells after 48 hrs by SRB assay; conditions: NCI-H460, 48 h
MDA-MB-435 = assay: Cytotoxicity against human MDA-MB-435 cells after 48 hrs by SRB assay; conditions: MDA-MB-435, 48 h
[12] = Cytotoxicity against human HOP62 cells after 48 hrs by SRB assay; conditions: HOP-62, 48 h
SK-MEL-5 = assay: Cytotoxicity against human SK-MEL-5 cells after 48 hrs by SRB assay; conditions: SK-MEL-5, 48 h
[13] = Cytotoxicity against human HCC2998 cells after 48 hrs by SRB assay; conditions: HCC 2998, 48 h
MDA-MB-231 = assay: Cytotoxicity against human MDA-MB-231 cells after 48 hrs by SRB assay; conditions: MDA-MB-231, 48 h
[14] = Cytotoxicity against human HCT116 cells after 48 hrs by SRB assay; conditions: HCT-116, 48 h
[15] = Cytotoxicity against human PC3 cells after 48 hrs by SRB assay; conditions: PC-3, 48 h
[16] = Cytotoxicity against human HL-60(TB) cells after 48 hrs by SRB assay; conditions: HL-60, 48 h
[17] = Cytotoxicity against human SNB75 cells after 48 hrs by SRB assay; conditions: SNB-75, 48 h
[18] = Cytotoxicity against human OVCAR4 cells after 48 hrs by SRB assay; conditions: OVCAR-4, 48 h
[19] = Cytotoxicity against human RXF393 cells after 48 hrs by SRB assay; conditions: RXF 393, 48 h
[20] = Cytotoxicity against human HCT15 cells after 48 hrs by SRB assay; conditions: HCT-15, 48 h
[21] = Cytotoxicity against human SNB19 cells after 48 hrs by SRB assay; conditions: SNB-19, 48 h
[22] = Cytotoxicity against human SF295 cells after 48 hrs by SRB assay; conditions: SF-295, 48 h
U-251 = assay: Cytotoxicity against human U251 cells after 48 hrs by SRB assay; conditions: U-251, 48 h
EKVX = assay: Cytotoxicity against human EKVX cells after 48 hrs by SRB assay
[23] = read-out: LC50 (the source's name)

## C=C1CC[C@@H]2[C@](C)(COC(C)=O)[C@H](OC(C)=O)CC[C@@]2(C)[C@@H]1CC(NCCCCCCCC)C1=CCOC1=O (mixture of isomers)
[1]
  inhibition of growth at 10 µM: 6.77%

## C=C1CC[C@@H]2[C@](C)(COC(C)=O)[C@H](OC(C)=O)CC[C@@]2(C)[C@@H]1CC(Sc1ccccc1)C1=CCOC1=O (mixture of isomers)
M14
  GI50: 1.47 µM
  LC50: 9.23 µM
  TGI: 3.69 µM
[2]
  GI50: 1.14 µM
  LC50 (concentration killing 50% of cells): 4.92 µM
  TGI: 2.37 µM
[3]
  GI50: 2.71 µM
  LC50: > 100 µM
  TGI: 8.71 µM
A498
  GI50: 2.3 µM
  TGI: 14 µM
A498; [23]
  CC50: 59.2 µM
[4]
  GI50: 1.41 µM
  LC50 (concentration killing 50% of cells): 5.33 µM
  TGI: 2.74 µM
[5]
  GI50: 2.46 µM
  LC50 (concentration causing 50% net cell kill): 8.89 µM
  TGI: 4.67 µM
[6]
  GI50: 1.3 µM
  LC50: 8.07 µM
  TGI: 3.24 µM
[7]
  GI50: 4.89 µM
  LC50 (concentration killing 50% of cells): > 100 µM
  TGI: 63.3 µM
[8]
  GI50: 1.48 µM
  LC50: > 100 µM
  TGI: 6.15 µM
[9]
  GI50: 1.91 µM
  LC50 (concentration killing 50% of cells): 7.2 µM
  TGI: 3.71 µM
MDA-MB-468
  GI50: 1.41 µM
  LC50: 7.53 µM
  TGI: 3.26 µM
[10]
  GI50: 2.1 µM
  LC50: > 100 µM
  TGI: 11 µM
MCF7
  GI50: 0.53 µM
  LC50 (50% lethal concentration): 7.27 µM
  TGI: 2.35 µM
786-0
  GI50: 1.9 µM
  LC50: 6.96 µM
  TGI: 3.64 µM
A549
  GI50: 2.73 µM
  LC50: > 100 µM
  TGI: 7.77 µM
[11]
  GI50: 1.87 µM
  TGI: 4.28 µM
NCI-H460
  GI50: 2.24 µM
  TGI: 6.03 µM
NCI-H460; [23]
  CC50: > 100 µM
MDA-MB-435
  GI50: 1.41 µM
  LC50 (50% lethal concentration): 9.09 µM
  TGI: 3.58 µM
[12]
  GI50: 2.89 µM
  LC50: 14.7 µM
  TGI: 5.53 µM
SK-MEL-5
  GI50: 1.42 µM
  LC50 (concentration killing 50% of cells): 5.6 µM
  TGI: 2.82 µM
[13]
  GI50: 2.1 µM
  LC50: 7.89 µM
  TGI: 4.08 µM
MDA-MB-231
  GI50: 2.47 µM
  LC50: > 100 µM
  TGI: 6.29 µM
[14]
  GI50: 0.85 µM
  LC50 (concentration killing 50% of cells): 5.03 µM
  TGI: 2.18 µM
[15]
  GI50: 1.84 µM
  LC50: > 100 µM
  TGI: 10.1 µM
[16]
  GI50: 0.49 µM
  TGI: 2.27 µM
[16]; [23]
  CC50: 9.76 µM
[17]
  GI50: 1.3 µM
  TGI: 2.9 µM
[17]; [23]
  CC50: 6.47 µM
[18]
  GI50: 1.36 µM
  TGI: 3.11 µM
[18]; [23]
  CC50: 7.12 µM
[19]
  GI50: 1.62 µM
  LC50 (concentration causing 50% net cell kill): 6.01 µM
  TGI: 3.12 µM
[20]
  GI50: 0.87 µM
  LC50: 6.98 µM
  TGI: 2.59 µM
[21]
  GI50: 1.78 µM
  LC50 (concentration killing 50% of cells): 7.97 µM
  TGI: 3.77 µM
[22]
  GI50: 4.12 µM
  LC50: > 100 µM
  TGI: 27.3 µM
U-251
  GI50: 1.56 µM
  LC50 (concentration giving 50% net cell kill): 5.62 µM
  TGI: 2.96 µM
EKVX
  GI50: 2.43 µM
  LC50: > 100 µM
  TGI: 10.4 µM

## C=C1CC[C@@H]2[C@](C)(COC(C)=O)[C@H](OC(C)=O)CC[C@@]2(C)[C@@H]1CC(NCCCC)C1=CCOC1=O (mixture of isomers)
[1]
  inhibition of growth at 10 µM: 4.96%
